Results: PubChem BioAssay (NCI)
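These data come from cells grown in 96-well plates and exposed to compound for 48 hours at five concentrations. At the TGI there is no net growth.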

How the values were obtained:
Assay in all cases: DTP human tumour cell line panel, 48 h
SN12K1 renal = test system: SN12K1 renal
XF 498 CNS = test system: XF 498 CNS
LXFL 529 NSCLC = test system: LXFL 529 NSCLC
HOP-18 NSCLC = test system: HOP-18 NSCLC

Compound	TGI (SN12K1 renal) [µM]	TGI (XF 498 CNS) [µM]	TGI (LXFL 529 NSCLC) [µM]	TGI (HOP-18 NSCLC) [µM]
COC(=O)c1ccc(N=NN(C)COc2ccc([N+](=O)[O-])cc2)cc1	> 100	> 100		
CC1=CC(=O)C(=O)C2=C1OC1(C2)C(C)CCC2C3(C)CCC(O)C(C)(C)C3CCC21C (centres undefined)		34	33.6	
CC12CCC(C(=O)N3CC=CCC3)(OC1=O)C2(C)C (centres undefined)	> 100	> 100		> 100
O=C(O)C1Cc2c([nH]c3ccccc23)C=N1 (centres undefined)		> 100		> 100
